In patent publication US9937151B2, “Carbapenem antibacterials with gram-negative activity” (priority 2010, dated 2018):
≈ marks a conversion by molar mass, not a printed value.

Tested on: G(−) bacterial strains
Assay: Dilution antimicrobial susceptibility tests (MIC, NCCLS agar dilution / broth dilution)
Format: cell-based, Gram-negative organisms
Conditions: unit assumed
Outline: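 Agar dilution on Mueller-Hinton agar at 10^4 CFU/spot and broth dilution at 5×10^5 CFU/well, per NCCLS M7-A5. Streptococci tested on Mueller-Hinton agar with 5% sheep blood. MIC taken as minimum inhibitory concentration; ATCC control strains run alongside.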

[1] = strain #1 Acinetobacter calcoaceticus
[2] = strain #2 Acinetobacter baumannii, Cf-R, Ci-R
[3] = strain #3 Acinetobacter baumannii, Cf-R, Ci-R, Mp-I
[4] = strain #4 Acinetobacter baumannii, Cf-R, Imp-I, CBPase
[5] = strain #7 Enterobacter aerogenes
[6] = strain #8 Enterobacter cloacae, Cf-R, B+
[7] = strain #9 Enterobacter cloacae, Cf-R
[8] = strain #10 Escherichia coli, Ci-R
[9] = strain #11 Escherichia coli, Ci-R, AmpC
[10] = strain #15 Klebsiella pneumoniae
[11] = strain #16 Moraxella catarrhalis
[12] = strain #21 Providencia rettgeri
[13] = strain #22 Salmonella typhimurium
[14] = strain #25 Shigella dysenteriae
[15] = strain #28 Stenotrophomonas maltophilia
[16] = strain #29 Pseudomonas aeruginosa
[17] = strain #30 Pseudomonas aeruginosa
[18] = strain #31 Pseudomonas aeruginosa, Ofx-R
[19] = strain #32 Pseudomonas aeruginosa, Cf-R
[20] = strain #33 Pseudomonas aeruginosa, Ci-R
[21] = strain #34 Pseudomonas aeruginosa, Gen-R
[22] = strain #35 Pseudomonas aeruginosa, Ip-R
[23] = strain #36 Pseudomonas aeruginosa, Cf-R, Ci-R, Mp-R

SMILES | MIC [1] [µg/mL] | MIC [2] [µg/mL] | MIC [3] [µg/mL] | MIC [4] [µg/mL] | MIC (strain #5 Citrobacter diversus) [µg/mL] | MIC (strain #6 Citrobacter freundii) [µg/mL] | MIC [5] [µg/mL] | MIC [6] [µg/mL] | MIC [7] [µg/mL] | MIC [8] [µg/mL] | MIC [9] [µg/mL] | MIC (strain #12 Escherichia coli) [µg/mL] | MIC (strain #13 Escherichia coli) [µg/mL] | MIC (strain #14 Klebsiella oxytoca) [µg/mL] | MIC [10] [µg/mL] | MIC [11] [µg/mL] | MIC (strain #17 Morganella Morganii) [µg/mL] | MIC (strain #18 Morganella Morganii) [µg/mL] | MIC (strain #19 Proteus vulgaris) [µg/mL] | MIC (strain #20 Proteus mirabilis) [µg/mL] | also measured
C[C@@H](O)C1C(=O)N2C(C(=O)O)=C(CN3CC[C@H](NC(N)=O)C3)[C@H](C)C12 (stereo partly drawn) [Compound 78] | 2 (≈ 5.68 µM) | 2 (≈ 5.68 µM) | 4 (≈ 11.4 µM) | 4 (≈ 11.4 µM) | 0.5 (≈ 1.42 µM) | 0.5 (≈ 1.42 µM) | 2 (≈ 5.68 µM) | 0.5 (≈ 1.42 µM) | 1 (≈ 2.84 µM) | 0.5 (≈ 1.42 µM) | 0.5 (≈ 1.42 µM) | 0.5 (≈ 1.42 µM) | 1 (≈ 2.84 µM) | 1 (≈ 2.84 µM) | 1 (≈ 2.84 µM) | 0.016 (≈ 0.0454 µM) | 8 (≈ 22.7 µM) | 4 (≈ 11.4 µM) | 4 (≈ 11.4 µM) | 1 (≈ 2.84 µM) | MIC [12]: 4 µg/mL (≈ 11.4 µM); MIC [13]: 1 µg/mL (≈ 2.84 µM); MIC (strain #23 Serratia marcescens): 2 µg/mL (≈ 5.68 µM); MIC (strain #24 Serratia marcescens): 2 µg/mL (≈ 5.68 µM); MIC [14]: 1 µg/mL (≈ 2.84 µM); MIC (strain #26 Shigella sonnei): 1 µg/mL (≈ 2.84 µM); MIC (strain #27 Shigella flexneri): 0.5 µg/mL (≈ 1.42 µM); MIC [15]: 1 µg/mL (≈ 2.84 µM); MIC [16]: 8 µg/mL (≈ 22.7 µM); MIC [17]: 8 µg/mL (≈ 22.7 µM); MIC [18]: 2 µg/mL (≈ 5.68 µM); MIC [19]: 16 µg/mL (≈ 45.4 µM); MIC [20]: 16 µg/mL (≈ 45.4 µM); MIC [21]: 16 µg/mL (≈ 45.4 µM); MIC [22]: 16 µg/mL (≈ 45.4 µM); MIC [23]: > 32 µg/mL
C[C@@H](O)C1C(=O)N2C(C(=O)O)=C(CN3CC[C@H](NC(=N)N)C3)[C@H](C)C12 (stereo partly drawn) [Compound 64] | 0.13 (≈ 0.37 µM) | 1 (≈ 2.85 µM) | 1 (≈ 2.85 µM) | 0.5 (≈ 1.42 µM) | 0.5 (≈ 1.42 µM) | 0.5 (≈ 1.42 µM) | 1 (≈ 2.85 µM) | 0.5 (≈ 1.42 µM) | 0.5 (≈ 1.42 µM) | 0.25 (≈ 0.711 µM) | 0.25 (≈ 0.711 µM) | 0.5 (≈ 1.42 µM) | 0.5 (≈ 1.42 µM) | 1 (≈ 2.85 µM) | 1 (≈ 2.85 µM) | ≤ 0.008 | 4 (≈ 11.4 µM) | 2 (≈ 5.69 µM) | 1 (≈ 2.85 µM) | 0.5 (≈ 1.42 µM) | MIC [12]: 2 µg/mL (≈ 5.69 µM); MIC [13]: 0.5 µg/mL (≈ 1.42 µM); MIC (strain #23 Serratia marcescens): 1 µg/mL (≈ 2.85 µM); MIC (strain #24 Serratia marcescens): 2 µg/mL (≈ 5.69 µM); MIC [14]: 0.5 µg/mL (≈ 1.42 µM); MIC (strain #26 Shigella sonnei): 0.5 µg/mL (≈ 1.42 µM); MIC (strain #27 Shigella flexneri): 0.25 µg/mL (≈ 0.711 µM); MIC [15]: 0.25 µg/mL (≈ 0.711 µM); MIC [16]: 1 µg/mL (≈ 2.85 µM); MIC [17]: 1 µg/mL (≈ 2.85 µM); MIC [18]: 0.25 µg/mL (≈ 0.711 µM); MIC [19]: 2 µg/mL (≈ 5.69 µM); MIC [20]: 2 µg/mL (≈ 5.69 µM); MIC [21]: 2 µg/mL (≈ 5.69 µM); MIC [22]: 2 µg/mL (≈ 5.69 µM); MIC [23]: 16 µg/mL (≈ 45.5 µM)
C[C@@H](O)C1C(=O)N2C(C(=O)O)=C(CN3CC[C@H](C#N)C3)[C@H](C)C12 (stereo partly drawn) [Compound 7] | 4 (≈ 12.5 µM) | 2 (≈ 6.26 µM) | 4 (≈ 12.5 µM) | 4 (≈ 12.5 µM) | 0.063 (≈ 0.197 µM) | 0.13 (≈ 0.407 µM) | 0.5 (≈ 1.57 µM) | 0.13 (≈ 0.407 µM) | 0.25 (≈ 0.783 µM) | 0.13 (≈ 0.407 µM) | 0.13 (≈ 0.407 µM) | 0.13 (≈ 0.407 µM) | 0.13 (≈ 0.407 µM) | 0.25 (≈ 0.783 µM) | 0.25 (≈ 0.783 µM) | ≤ 0.008 | 1 (≈ 3.13 µM) | 1 (≈ 3.13 µM) | 0.5 (≈ 1.57 µM) | 0.13 (≈ 0.407 µM) | MIC [12]: 0.5 µg/mL (≈ 1.57 µM); MIC [13]: 0.13 µg/mL (≈ 0.407 µM); MIC (strain #23 Serratia marcescens): 0.25 µg/mL (≈ 0.783 µM); MIC (strain #24 Serratia marcescens): 0.5 µg/mL (≈ 1.57 µM); MIC [14]: 0.25 µg/mL (≈ 0.783 µM); MIC (strain #26 Shigella sonnei): 0.13 µg/mL (≈ 0.407 µM); MIC (strain #27 Shigella flexneri): 0.13 µg/mL (≈ 0.407 µM); MIC [15]: 0.5 µg/mL (≈ 1.57 µM); MIC [16]: 16 µg/mL (≈ 50.1 µM); MIC [17]: 8 µg/mL (≈ 25.1 µM); MIC [18]: 2 µg/mL (≈ 6.26 µM); MIC [19]: 8 µg/mL (≈ 25.1 µM); MIC [20]: 8 µg/mL (≈ 25.1 µM); MIC [21]: 8 µg/mL (≈ 25.1 µM); MIC [22]: 32 µg/mL (≈ 100 µM); MIC [23]: > 32 µg/mL
